Laboratory results reported in PubChem BioAssay (NCI).
“And” between values parts separate entries of the source, which are not always exact repeats. Equal entries are not always repeated.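 Growth conditions: 96-well plates. Treatment: test compound, 48 hours, 5 concentrations. Analysis: linear interpolation between bracketing concentrations; unreached endpoints set to highest concentration. GI50: concentration for 50% inhibition of growth. At the TGI there is no net growth.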

Columns and labels:
Experiment in all cases: NCI tumour cell line growth inhibition, 48 h
NCI-H460 lung = system: NCI-H460 lung
HOP-62 NSCLC = system: HOP-62 NSCLC
SNB-75 CNS = system: SNB-75 CNS
SF-539 CNS = system: SF-539 CNS
786-0 renal = system: 786-0 renal
A549 NSCLC = system: A549 NSCLC
OVCAR-3 ovarian = system: OVCAR-3 ovarian
EKVX NSCLC = system: EKVX NSCLC
SN12C renal = system: SN12C renal
NCI-H226 lung = system: NCI-H226 lung

SMILES	TGI (NCI-H460 lung)	TGI (HOP-62 NSCLC)	TGI (SNB-75 CNS)	TGI (SF-539 CNS)	TGI (786-0 renal)	TGI (A549 NSCLC)	TGI (OVCAR-3 ovarian)	TGI (EKVX NSCLC)	TGI (SN12C renal)	TGI (NCI-H226 lung)	GI50 (NCI-H460 lung)	GI50 (HOP-62 NSCLC)	GI50 (SNB-75 CNS) [µM]	GI50 (SF-539 CNS) [µM]	GI50 (786-0 renal)	GI50 (A549 NSCLC)	GI50 (OVCAR-3 ovarian)	GI50 (EKVX NSCLC)	GI50 (SN12C renal) [µM]	GI50 (NCI-H226 lung) [µM]
Cc1cccc(C(C)(C)C)c1NC(=O)C(C#N)C1=C(Cl)C(=O)c2ccccc2C1=O (stereo not given)	38.5 µM	32.2 µM	27.6 µM	32.5 µM	30 µM	46.7 µM	31.4 µM	17.1 µM	31.5 µM	21.2 µM	–	–	–	–	–	–	–	–	–	–
O=C(CCc1nc(=S)[nH][nH]1)Nc1cc(Cl)ccc1Cl	> 100 µM	> 100 µM	> 100 µM	> 100 µM	> 100 µM	> 100 µM	> 100 µM	> 100 µM	> 100 µM	> 100 µM	–	–	–	–	–	–	–	–	–	–
NC(CCSCC(F)(F)F)C(=O)O (stereo not given)	> 100 µM	> 100 µM	> 100 µM	> 100 µM	> 100 µM	> 100 µM	> 100 µM	> 100 µM	> 100 µM	> 100 µM	–	–	–	–	–	–	–	–	–	–
COc1ccc(-n2cc(-c3cc(OC)c(OC)c(OC)c3)nc2SCc2ccc(Cl)cc2)cc1OC	> 100 µM	> 100 µM	> 100 µM	> 100 µM	> 100 µM	> 100 µM	> 100 µM	> 100 µM	> 100 µM	> 100 µM	> 100 µM	> 100 µM	9.82	> 100	> 100 µM	53.2 µM	> 100 µM	95.3 µM	> 100	> 100
C[C@H]1CCC/C=C/C2CC(OC(=O)CN(C)C)CC2C(OC(=O)CN(C)C)/C=C/C(=O)O1 (stereo not given in full)	31.2 µM	23.2 µM	–	> 100 µM	–	> 100 µM	3.2 µM	> 87.8 µM	8.33 µM	0.44 µM	1.09 µM	2.51 µM	0.0567	0.531	0.107 µM	0.68 µM	0.428 µM	0.558 µM	0.391	0.133
CC1(C)OB(c2ccc(N(CCOS(C)(=O)=O)CCOS(C)(=O)=O)cc2)OC1(C)C	> 100 µM	23.4 µM	49.3 µM	29.9 µM	21.6 µM	> 85.8 µM	45.3 µM	58.7 µM	> 54.6 µM	33.6 µM	12.6 µM	7.92 µM	22.1	7.55	3.41 µM	15.1 µM	18.9 µM	23.4 µM	9.38	9.02
O=C1Cc2c(-c3ccccc3)cc(-c3ccccc3)nc2-c2ccccc2N1	29.6 µM	7.73 µM	7.71 µM	34.4 µM	72.5 µM	26.6 µM	21.4 µM	80.3 µM	30.8 µM	46.9 µM	–	–	–	–	4.14 µM	–	–	–	–	–
O=C(CCC(=O)Nc1ccccc1C(F)(F)F)N/N=C1\C(=N\NC(=O)CCC(=O)Nc2ccccc2C(F)(F)F)C(c2ccc3c(c2)OCO3)Oc2ccccc21 (stereo not given)	> 100 µM	56.3 µM	43.2 µM	54.6 µM	> 100 µM	> 100 µM	> 100 µM	> 100 µM	> 100 µM	> 100 µM	–	–	–	–	–	–	–	–	–	–
O=C(O)C1C2C=CC(O2)C1C(=O)NCc1cccnc1 (stereo not given)	> 100 µM	> 100 µM	> 100 µM	> 100 µM	> 100 µM	> 100 µM	> 100 µM	> 100 µM	> 100 µM	> 100 µM	–	–	–	–	–	–	–	–	–	–
Cc1ccc2c(c1)[n+](=O)c(C(=O)c1cccs1)c(C(F)(F)F)n2[O-]	–	–	17.3 µM	2.36 µM	50 µM and 12.4 µM	20.9 µM and 10.8 µM	2.6 µM and 0.979 µM	1.87 µM and 0.746 µM	1.97 µM	13.2 µM	0.616 µM and 0.359 µM	2.39 µM and 0.689 µM	2.86	0.997	4.85 µM and 1.05 µM	1.72 µM and 0.764 µM	0.923 µM and 0.163 µM	0.729 µM and 0.278 µM	0.796	2.21
CCc1cccc(C(C)C)c1NC(=O)CC1Sc2ccccc2NC1=O (stereo not given)	> 100 µM	> 100 µM	> 100 µM	> 100 µM	> 100 µM	> 100 µM	> 100 µM	> 100 µM	> 100 µM	> 100 µM	–	–	–	–	–	–	–	–	–	–
COc1ccccc1-n1cnc(N)c1C(=O)c1cc(OC)c(OC)c(OC)c1	> 100 µM	> 100 µM	9.3 µM	9.12 µM	> 100 µM	> 100 µM	19.3 µM	> 100 µM	> 100 µM	> 100 µM	3.47 µM	37.4 µM	2.3	2.42	5.41 µM	4.42 µM	3.34 µM	7.55 µM	5.65	4.34
COc1ccc(-c2nn(-c3cccc(Cl)c3)cc2/C=C2\NC(=S)N(c3ccc(Cl)cc3)C2=O)cc1	18.4 µM	7.83 µM	4.47 µM	> 25 µM	> 25 µM	9.73 µM	12.9 µM	15.8 µM	> 25 µM	9.36 µM	4.7 µM	3.91 µM	0.95	8.22	5.57 µM	3.35 µM	5.54 µM	4.32 µM	5.48	4.03
N#Cc1ncc(C(Cl)Cl)nc1Cl	3.74 µM	> 8.07 µM	6.64 µM	3.44 µM	3.16 µM	> 10 µM	4.59 µM	3.27 µM	3.79 µM	> 10 µM	–	–	–	–	–	–	–	–	–	–
Cc1noc2cccc(O)c12	> 100 µM	> 100 µM	> 100 µM	> 100 µM	> 100 µM	> 100 µM	> 100 µM	> 100 µM	> 100 µM	> 100 µM	–	–	–	–	–	–	–	–	–	–
Cc1nnc(C[C@@H]2C=C(c3ccc(Cl)cc3)c3ccccc3-n3c(C)nnc32)o1	> 100 µM	> 90.4 µM	47.3 µM	54.3 µM	38.7 µM	> 82.2 µM	19.8 µM	> 100 µM	> 100 µM	> 100 µM	11.7 µM	0.318 µM	0.048	1.16	1.04 µM	2.61 µM	1.08 µM	6.01 µM	12	12.6
C[C@@H]1CC[C@H]2[C@@H](C)C(O)O[C@@H]3O[C@]4(C)CC[C@@H]1[C@]32OO4 (stereo not given in full)	15 µM	18.7 µM	15.6 µM	14.2 µM	> 48.8 µM	13.5 µM	15.6 µM	17.2 µM	> 72.3 µM	40.9 µM	1.33 µM	2.99 µM	2.54	0.868	1.59 µM	1.74 µM	0.431 µM	0.65 µM	1.37	1.56
CCOC(=O)C1(CC(=O)O)CCCC1=O (stereo not given)	> 100 µM	> 100 µM	> 100 µM	> 100 µM	> 100 µM	> 100 µM	> 100 µM	> 100 µM	> 100 µM	> 100 µM	–	–	–	–	–	–	–	–	–	–
O=C1c2c(O)cccc2C(C(=O)CCCCCC(=O)C2c3cccc(O)c3C(=O)c3c(O)cccc32)c2cccc(O)c21	1.62 µM and 5.23 µM	6.96 µM and 16.9 µM	6.15 µM and 7.22 µM	–	21.6 µM	3.68 µM and 14.5 µM	3.19 µM and 5.98 µM	3.68 µM and 19.5 µM	9.71 µM and 30 µM	7.29 µM and 11.6 µM	1.57 µM	5.45 µM	1.69	6.64	–	6.6 µM	1.73 µM	5.64 µM	10.6	4.97
Cc1nc2ccccn2c1NC(=O)NN1C(=O)CSC1c1ccc(Cl)cc1 (stereo not given)	> 100 µM	> 100 µM	> 100 µM	> 100 µM	> 100 µM	> 100 µM	> 100 µM	> 100 µM	> 100 µM	> 100 µM	> 100 µM	> 100 µM	> 100	> 100	> 100 µM	> 100 µM	> 100 µM	> 100 µM	> 100	> 100
NC(Cc1ccccc1)C(=O)OCN1C(=O)C2C3C=CC(C2C1=O)C1C2C(=O)N(COC(=O)C(N)Cc4ccccc4)C(=O)C2C31 (stereo not given)	27.4 µM and 30.8 µM	> 100 µM	64.6 µM and 62.3 µM	44.8 µM and 44.6 µM	38.2 µM and 38 µM	61.7 µM and 48.7 µM	87 µM and 67.7 µM	> 100 µM	52.7 µM and 43.9 µM	> 100 µM and 72.1 µM	–	–	–	–	–	–	–	–	–	–
O=C(NCCCCCCCCCCCCNC(=O)c1cnc2ccccc2n1)c1cnc2ccccc2n1	> 100 µM	> 100 µM	49.3 µM	36.8 µM	> 100 µM	> 100 µM	> 100 µM	> 100 µM	> 100 µM	> 100 µM	–	–	–	–	–	–	–	–	–	–
CC(Oc1cc2oc(=O)cc(-c3ccccc3)c2cc1Cl)C(=O)O (stereo not given)	> 100 µM	> 100 µM	> 100 µM	> 100 µM	> 100 µM	> 100 µM	> 100 µM	> 100 µM	> 100 µM	> 100 µM	–	–	–	–	–	–	–	–	–	–
N#C/C(=C\c1ccc(O)c(O)c1)C(=O)NCc1ccc(C(F)(F)F)cc1	> 43 µM	26.9 µM	55.7 µM	17.8 µM	37.5 µM	53.5 µM	1.11 µM	> 61.8 µM	18.8 µM	54.9 µM	6.87 µM	9.48 µM	13.3	5.5	18.4 µM	10.9 µM	0.507 µM	19.7 µM	4.06	19.8
